According to patent publication US7091033B2, “Array of toxicologically relevant canine genes and uses thereof” (Phase-1 Molecular Toxicology, Inc., priority 2000, dated 2006):

Tested on: canine genes differentially expressed in organs (liver, spleen, kidney, testes, heart, thymus)
Assay: Transcriptome profiling / differential display of tissues from canines exposed to an agent versus vehicle (reverse transcription, PCR, reamplification of bands, sequencing)
Assay type: in vivo
[1] = Band # CTP60B, Homo sapiens RNA bindii XM_016120
[2] = Band # CTP65A, Pig mRNA for endoplasm X16951
[3] = Band # CTP74A, No significant match
[4] = Band # CTP75C, No significant match
[5] = Band # CTP85D, Homo sapiens Rho-assoc XM_008814
[6] = Band # CTP122I, Human mRNA for KIAA0(D26067)
[7] = Band # CTP185C, No significant match
[8] = Band # CTP206A, Homo sapiens fatty acid c NM_013402

COc1cc([C@@H]2c3cc4c(cc3[C@@H](O[C@@H]3O[C@@H]5CO[C@@H](C)O[C@H]5[C@H](O)[C@H]3O)[C@H]3COC(=O)[C@H]23)OCO4)cc(OC)c1O [Etoposide]
Expression Pattern (Band # CTP1D, No significant match): upregulated with Etoposide, caffeine | Expression Pattern (Band # CTP1G, No significant match): upregulated with Etoposide, caffeine | Expression Pattern (Band # CTP7B, No significant match): upregulated in Etoposide treated | Expression Pattern (Band # CTP8A, No significant match): repressed in Etoposide treated | Expression Pattern (Band # CTP8C, Human DNA sequence fn HSJ734P14): repressed in Etoposide treated | Expression Pattern (Band # CTP10Y, Canis familiaris mitochon CFU96639): upregulated in Etoposide treated | Expression Pattern (Band # CTP11A, cyclin-dependent kinase i BC001935): upregulated in Etoposide treated | Expression Pattern (Band # CTP16B, Homo sapiens cDNA FLJAK000548): repressed in Etoposide treated | Expression Pattern (Band # CTP17G, No significant match): repressed in Etoposide treated | Expression Pattern (Band # CTP18B, No significant match): upregulated in Etoposide treated | Expression Pattern (Band # CTP19F, Homo sapiens chromosor AC008651): upregulated in Etoposide treated | Expression Pattern (Band # CTP34A, Homo sapiens ribosomal NM_001032): repressed in Etoposide

N.N.[Cl][Pt+2][Cl] [transplatin]
Expression Pattern [1]: repressed with carbo and trans platin | Expression Pattern [2]: repressed with carbo and trans platin | Expression Pattern [3]: repressed with carbo, trans and cisplatin | Expression Pattern [4]: repressed with carbo, trans and cisplatin | Expression Pattern [5]: repressed with carbo, trans and cisplatin | Expression Pattern [6]: repressed with carbo and transplatin | Expression Pattern (Band # CTP129A, Homo sapiens, Similar to BC007583): induced with transplatin | Expression Pattern [7]: induced with carbo and trans platin | Expression Pattern [8]: repressed with carbo and transplatin | Expression Pattern (Band # CTP208B, No significant match): induced with transplatin | Expression Pattern (dog, in vivo): repressed with carbo and trans platin

N.N.O=C([O-])C1(C(=O)[O-])CCC1.[Pt+2] [carboplatin]
Expression Pattern (Band # CTP28D, Homo sapiens upstream INM_014517): repressed in carboplatin | Expression Pattern (Band # CTP30E, Homo sapiens BAC clone AC003083): repressed in carboplatin | Expression Pattern (Band # CTP58A, No significant match): repressed with carboplatin | Expression Pattern [1]: repressed with carbo and trans platin | Expression Pattern [2]: repressed with carbo and trans platin | Expression Pattern (Band # CTP71A, Canis familiaris caveolin- U47060): induced with carboplatin | Expression Pattern [3]: repressed with carbo, trans and cisplatin | Expression Pattern [4]: repressed with carbo, trans and cisplatin | Expression Pattern [5]: repressed with carbo, trans and cisplatin | Expression Pattern [6]: repressed with carbo and transplatin | Expression Pattern (Band # CTP178B, Homo sapiens mRNA for AB040957): induced with carboplatin | Expression Pattern (Band # CTP179K, No significant match): induced with carboplatin | Expression Pattern [7]: induced with carbo and trans platin | Expression Pattern (Band # CTP197A, No significant match): induced with carboplatin | Expression Pattern (Band # CTP201B, Homo sapiens, exostoses BC001174): induced with carboplatin | Expression Pattern (Band # CTP202C, No significant match): induced with carboplatin | Expression Pattern (Band # CTP205D, Homo sapiens similar to XM_011187): induced with carboplatin | Expression Pattern [8]: repressed with carbo and transplatin | Expression Pattern (dog, in vivo): repressed with carbo and trans platin

N.N.[Cl][Pt][Cl] [cisplatin]
Expression Pattern (Band # CTP31A, No significant match): upregulated in cisplatin | Expression Pattern (Band # CTP41B, Homo sapiens mRNA for AB037813): repressed in cisplatin | Expression Pattern (Band # CTP47G, No significant match): induced with cisplatin | Expression Pattern (Band # CTP50A, No significant match): induced with cisplatin | Expression Pattern (Band # CTP51A, Homo sapiens intestinal 1 AF219991): induced with cisplatin | Expression Pattern (Band # CTP52B, No significant match): induced with cisplatin | Expression Pattern (Band # CTP53A, No significant match): induced with cisplatin | Expression Pattern (Band # CTP59A, Homo sapiens cyclin D2 (XM_012143)): induced with cisplatin | Expression Pattern (Band # CTP62A, No significant match): induced with cisplatin | Expression Pattern (Band # CTP63A, No significant match): induced with cisplatin | Expression Pattern (Band # CTP64B, No significant match): induced with cisplatin | Expression Pattern (Band # CTP67A, clone RP5-1071L10 on cl AL133228): repressed with cisplatin | Expression Pattern (Band # CTP68F, Oryctolagus cuniculus Ne U09823): repressed with cisplatin | Expression Pattern (Band # CTP70A, No significant match): repressed with cisplatin | Expression Pattern (Band # CTP72B, No significant match): repressed with cisplatin | Expression Pattern (Band # CTP73A, Homo sapiens chromosor AC026201): repressed with cisplatin | Expression Pattern (Band # CTP73B, No significant match): repressed with cisplatin | Expression Pattern [3]: repressed with carbo, trans and cisplatin | Expression Pattern [4]: repressed with carbo, trans and cisplatin | Expression Pattern (Band # CTP76B, No significant match): induced with cisplatin | Expression Pattern (Band # CTP77D, No significant match): repressed with cisplatin | Expression Pattern (Band # CTP78B, Homo sapiens SON DNA XM_009738): induced with cisplatin | Expression Pattern (Band # CTP79B, No significant match): induced with cisplatin | Expression Pattern (Band # CTP80A, Homo sapiens WDR4 ger AB039887): repressed with cisplatin | Expression Pattern (Band # CTP81A, No significant match): induced with cisplatin | Expression Pattern [5]: repressed with carbo, trans and cisplatin | Expression Pattern (Band # CTP86F, Homo sapiens chromodoi NM_001272): induced with cisplatin | Expression Pattern (Band # CTP87B, Homo sapiens tetratricopi XM_009760): induced with cisplatin | Expression Pattern (Band # CTP88A, Rattus norvegicus ribosor NM_022506): repressed with cisplatin | Expression Pattern (Band # CTP89B, Homo sapiens genomic [AP003473): induced with cisplatin | Expression Pattern (Band # CTP90A, Homo sapiens clone 248(AF070622)): induced with cisplatin | Expression Pattern (Band # CTP92A, No significant match): induced with cisplatin | Expression Pattern (Band # CTP92C, Human DNA sequence fn AL133286): induced with cisplatin | Expression Pattern (Band # CTP93F, clone RP1-211D12 on ch Z93016): induced with cisplatin | Expression Pattern (Band # CTP94B, Homo sapiens clathrin, h NM_008305): induced with cisplatin | Expression Pattern (Band # CTP99A, No significant match): repressed with cisplatin | Expression Pattern (Band # CTP100A, COX15 (yeast) homolog, BC002382): induced with cisplatin | Expression Pattern (Band # CTP103JJ, No significant match): induced with cisplatin | Expression Pattern (Band # CTP104I, No significant match): repressed with cisplatin | Expression Pattern (Band # CTP109P, No significant match): induced with cisplatin | Expression Pattern (Band # CTP110A, No significant match): induced with cisplatin | Expression Pattern (Band # CTP111A, No significant match): induced with cisplatin | Expression Pattern (Band # CTP112B, Bos taurus peroxiredoxin AF305561): induced with cisplatin | Expression Pattern (Band # CTP113A, Box taurus ribosomal proi AF063243): induced with cisplatin | Expression Pattern (Band # CTP115B, Homo sapiens chromosoi AC005899): induced with cisplatin | Expression Pattern (Band # CTP116A, No significant match): induced with cisplatin | Expression Pattern (Band # CTP117B, Homo sapiens similar to XM_017740): induced with cisplatin | Expression Pattern (Band # CTP119J, H. sapiens SPR-2 mRNA 1X68560 S52): induced with cisplatin | Expression Pattern (Band # CTP121D, Human ribosomal protein U43701): induced with cisplatin | Expression Pattern (Band # CTP124B, No significant match): induced with cisplatin | Expression Pattern (Band # CTP126A, No significant match): induced with cisplatin | Expression Pattern (Band # CTP131B, Homo sapiens similar to s XM_006087): induced with cisplatin | Expression Pattern (Band # CTP133B, No significant match): induced with cisplatin | Expression Pattern (Band # CTP134A, No significant match): induced with cisplatin | Expression Pattern (Band # CTP135A, Homo sapiens cDNA FLJAK021570): induced with cisplatin | Expression Pattern (Band # CTP300B, Homo sapiens utrophin (I-NM_007124)): repressed with cisplatin | Expression Pattern (Band # CTP304B, Homo sapiens unknov XM_002211): induced with cisplatin | Expression Pattern (Band # CTP306B, No significant match): induced with cisplatin | Expression Pattern (Band # CTP308KK, No significant match): induced with cisplatin | Expression Pattern (Band # CTP309A, No significant match): repressed with cisplatin
